According to article PMC7811808, “Design, synthesis, and biological evaluation of novel 5,6,7-trimethoxy quinolines as potential anticancer agents and tubulin polymerization inhibitors” (Iranian Journal of Basic Medical Sciences, 2020):

Tests used:
[1] = tested on: A2780/RCIS; test: MTT antiproliferative activity assay; type: cell-based; conditions: Homo sapiens, A2780; MTT, 48 hr; read-out: IC50 A2780/RCIS
Protocol: (§1) The MTT assay was done by seeding 5.0×10^3 human cancer cells or normal cells per well in 96-well plates ([34]-[36]). Following overnight incubation of the cells in 5% CO2 at 37 °C, culture medium of each well was exchanged with medium having reference anti-cancer agent CA-4 as well as different concentrations of synthesized compounds and RPMI (no drug) negative control and cells were incubated 48 hr. Then MTT solution (25 μl, 4 mg ml ^-1) was added to each well and the cells were incubated at 37 °C (for 3 hr). Finally, formazan crystals were dissolved in DMSO (100 μl) and plates were read in a plate reader (Synergy H4, USA) at 540 nm. The cytotoxic activity of the synthesized compounds was evaluated against different human cancer cell lines including […]-7 and MCF-7/MX, and normal cells by MTT assay. Combretastatin A-4 (CA-4) was used as the positive control.

[2] = tested on: A2780; test: MTT antiproliferative activity assay; type: cell-based; conditions: Homo sapiens, 48 hr
Protocol: as §1

[3] = tested on: MCF-7/MX; test: MTT antiproliferative activity assay; type: cell-based; conditions: Homo sapiens, MCF7/MX; MTT, 48 hr; read-out: IC50 MCF-7/MX
Protocol: as §1

[4] = tested on: MCF-7; test: MTT antiproliferative activity assay; type: cell-based; conditions: Homo sapiens, MCF7, 48 hr
Protocol: as §1

[5] = tested on: HUVEC; test: MTT assay on normal cells; type: cell-based; conditions: Homo sapiens, 48 hr
Protocol: as §1

[6] = tested on: A2780, A2780/RCIS, MCF-7 and MCF-7/MX; test: MTT assay, statements over all four cancer cell lines; type: cell-based; conditions: Homo sapiens, range over four cell lines, read-out: IC50 values range against all four human cancer cells
Protocol: as §1

[7] = target: T1, tubulin (Sus scrofa, UniProt P02550+P02554); test: In vitro tubulin polymerization assay (fluorescence kit); type: biochemical; conditions: compound 20 µM; CA-4 5 µM
T1 construct: purchased cytoskeleton BK011P
Protocol: A commercial kit (cytoskeleton, cat. #BK011P) was used to evaluate the tubulin polymerization inhibition activity of compounds ([37]). Briefly, tubulin protein was added to tubulin buffer (80 mM PIPES, 2 mM MgCl2, 0.5 mM EGTA, 1 mM GTP, […], PH 6.9) and the acquired mixture was added to wells of a 96-well plate comprising the cytotoxic compounds or vehicle. Tubulin polymerization was observed by detecting the fluorescence augmentation due to the addition of a fluorescence reporter into microtubules as polymerization occurred. Polymerization was measured by excitation at 360 nm and emission at 420 nm for 1 hr at 1 min intervals in a plate reader (Synergy H4, USA). CA-4 (5 μM) and paclitaxel (3 μM) were used as positive destabilizing and positive stabilizing controls, respectively.
In order to check if the cytotoxic activity of our quinolines was correlated to their ability to inhibit tubulin, compounds 7e and 7f and CA4 (polymerization suppressor) and paclitaxel (polymerization promoter) were assessed for their activity in a microtubule polymerization assay.

[8] = tested on: A2780 cancer cells; test: Cell cycle analysis by flow cytometry (PI); type: cell-based, human; conditions: 48 hr
Excerpt: (§2) Flow cytometry with propidium iodide (PI) was used to analyze the cell numbers in the cell cycle phases. […] Flowjo software 7.6 was used to analyze the data regarding the cell numbers in different phases of the cell cycle.
(§3) Tubulin inhibitors arrest cell cycle at the G2/M phase in cancer cells owing to destruction of the microtubular cytoskeleton. To get more understanding of the mechanism of action, the effects of compounds 7f and 7e on the cell cycle were examined by ﬂow cytometry in four human cancer cell lines (MCF-7, MCF-7/MX, A2780, and A2780/RCIS). […] When A2780 cancer cells were treated with 7f and 7e for 48 hr, the percentage of cells in the G2/M phase was 15.70% (7f, 1 μM), 17.74% (7f, 10 μM), 23.30% (7e, 5μM), and 4.15% (7e, 15μM) compared with the negative control (4.84%). Moreover, the percentage of A2780 cancer cells in the subG1 phase was 18.58% (7f, 10 μM) and 68.16% (7e, 15 μM).

[9] = tested on: A2780/RCIS cancer cells; test: Cell cycle analysis by flow cytometry (PI); type: cell-based, human; conditions: 48 hr
Excerpt: as §2, §3

[10] = tested on: MCF-7 cancer cells; test: Cell cycle analysis by flow cytometry (PI); type: cell-based, human; conditions: 48 hr
Excerpt: as §2, §3

[11] = tested on: MCF-7/MX cancer cells; test: Cell cycle analysis by flow cytometry (PI); type: cell-based, human; conditions: 48 hr
Excerpt: as §2, §3

[12] = tested on: A2780 cells; test: Apoptosis assay (Annexin V/PI staining); type: cell-based, human; conditions: 24 hr
Protocol: A2780 cells ([…]) were seeded in six-well plates and incubated overnight. Then the medium was replaced with a complete medium containing compound 7e (3 and 15 µM concentrations). After 24 hr incubation, the cells were […] and washed with PBS and incubated with buffer including 10 mM HEPES, 140 mM NaCl, and 2.5 mM CaCl2 (pH 7.4) and also PI and annexin V-FITC at room temperature (20 min) ([38]). The samples were analyzed using a flow cytometer (Beckman Coulter), and the results were assessed using the Flowjo software.
Then, to investigate the mode of cell death caused by 7e, flow cytometry was done using propidium iodide (PI) ([19]), which only colors DNA and only enter dead cells, and Annexin-V (the fluorescence probe), which binds to the early apoptotic cells selectively ([20]).

T1 sequence (P02550 whole entry): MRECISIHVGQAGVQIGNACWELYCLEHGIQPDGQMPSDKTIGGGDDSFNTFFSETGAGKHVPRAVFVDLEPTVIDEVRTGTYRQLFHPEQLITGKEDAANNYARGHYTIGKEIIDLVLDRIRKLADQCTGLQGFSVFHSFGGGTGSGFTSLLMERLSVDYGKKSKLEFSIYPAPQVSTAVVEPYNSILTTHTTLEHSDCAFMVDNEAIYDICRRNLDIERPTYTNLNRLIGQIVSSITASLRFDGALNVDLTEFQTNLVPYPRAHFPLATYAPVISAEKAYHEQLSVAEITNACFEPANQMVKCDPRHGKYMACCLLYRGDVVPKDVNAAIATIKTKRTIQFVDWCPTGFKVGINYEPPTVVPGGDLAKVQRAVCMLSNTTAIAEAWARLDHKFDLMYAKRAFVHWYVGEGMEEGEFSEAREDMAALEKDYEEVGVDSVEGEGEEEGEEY
T1 sequence (P02554 whole entry): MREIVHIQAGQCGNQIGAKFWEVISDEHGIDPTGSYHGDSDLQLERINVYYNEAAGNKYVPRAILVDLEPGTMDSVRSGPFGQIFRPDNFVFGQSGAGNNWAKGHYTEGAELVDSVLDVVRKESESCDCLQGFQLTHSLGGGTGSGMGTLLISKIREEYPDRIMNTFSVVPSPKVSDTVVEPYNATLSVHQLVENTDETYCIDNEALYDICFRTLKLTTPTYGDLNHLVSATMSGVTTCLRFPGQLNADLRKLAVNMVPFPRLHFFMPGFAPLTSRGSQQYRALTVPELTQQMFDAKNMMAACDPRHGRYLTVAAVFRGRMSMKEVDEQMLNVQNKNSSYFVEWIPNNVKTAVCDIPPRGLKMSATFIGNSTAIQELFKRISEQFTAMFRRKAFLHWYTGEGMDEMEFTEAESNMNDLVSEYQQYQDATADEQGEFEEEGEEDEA

Q: Which results are given for `COc1cc2nc(/C=C/c3ccc(C)cc3)cc(Cl)c2c(OC)c1OC` [Compound 9b, E-4-Chloro-5,6,7-trimethoxy-2-(4-methylstyryl)quinoline]?
A: IC50 [1]: > 100 µM; IC50 [2]: > 100 µM; IC50 [3]: > 100 µM; IC50 [4]: > 100 µM; IC50 [5]: > 100 µM; melting point: 153 to 155 °C

Q: With `COc1cc2nc(/C=C/c3ccccc3)cc(Cl)c2c(OC)c1OC` [Compound 9a, E-4-Chloro-5,6,7-trimethoxy-2-styrylquinoline] as the compound, how does the IC50 [1] read?
A: 46.2 ± 3.57 µM

Q: And the IC50 [2]?
A: 30.5 ± 3.22 µM

Q: What about the IC50 [3] of the same compound?
A: 64.6 ± 5.29 µM

Q: What about the IC50 [4] of the same compound?
A: 63.7 ± 5.27 µM

Q: And the IC50 [5]?
A: 74 ± 5.95 µM

Q: What about the melting point of the same compound?
A: 110 to 113 °C

Q: Which IC50 [1] does the source give for `COc1ccc(Nc2cc(C)nc3cc(OC)c(OC)c(OC)c23)cc1O` [Compound 7d, 2-Methoxy-5-((5,6,7-trimethoxy-2-methylquinolin-4-yl)amino)phenol] here?
A: 44.7 ± 2.76 µM

Q: And the IC50 [2]?
A: 29.6 ± 2.98 µM

Q: What about the IC50 [3] of the same compound?
A: 78.2 ± 5.37 µM

Q: And the IC50 [4]?
A: 53.6 ± 3.66 µM

Q: What about the IC50 [5] of the same compound?
A: 62.7 ± 5.42 µM

Q: And the melting point?
A: 182 to 184 °C

Q: Which results are given for `COc1cc(Nc2cc(C)nc3cc(OC)c(OC)c(OC)c23)cc(OC)c1OC` [Compound 7c, 5,6,7-Trimethoxy - 2-methyl - -N-(3,4,5-methoxyphenyl) quinolin-4-amine]?
A: IC50 [1]: > 100 µM; IC50 [2]: 80.2 ± 5.23 µM; IC50 [3]: 69.8 ± 4.85 µM; IC50 [4]: > 100 µM; IC50 [5]: > 100 µM; melting point: 175 to 178 °C

Q: With `COc1cc2nc(C)cc(Nc3ccc(C(=O)c4ccccc4)cc3)c2c(OC)c1OC` [Compound 7e] as the compound, how does the IC50 [1] read?
A: 6.66 ± 1.35 µM

Q: What about the IC50 [2] of the same compound?
A: 11.3 ± 1.47 µM

Q: What about the IC50 [3] of the same compound?
A: 10.9 ± 1.28 µM

Q: What about the IC50 [4] of the same compound?
A: 33 ± 2.51 µM

Q: And the IC50 [5]?
A: > 100 µM

Q: What about the IC50 [6] of the same compound?
A: 5.02 to 35.8 µM

Q: And the “tubulin polymerization inhibition” value [7]?
A: inhibited tubulin polymerization in a way similar to that of CA-4

Q: What about the G2/M ([8]; A2780, 5 μM) of the same compound?
A: 23.30%

Q: What about the G2/M ([8]; A2780, 15 μM) of the same compound?
A: 4.15%

Q: And the SubG1 ([8]; A2780, 15 μM)?
A: 68.16%

Q: What about the G2/M ([9]; 1 μM) of the same compound?
A: 24.91%

Q: And the G2/M ([9]; 5 μM)?
A: 25.93%

Q: What about the G2/M ([10]; MCF-7, 20 μM) of the same compound?
A: 25.91%

Q: What about the G2/M ([10]; MCF-7, 30 μM) of the same compound?
A: 34.45%

Q: What about the G2/M ([11]; 1 μM) of the same compound?
A: 25.41%

Q: What about the G2/M ([11]; 10 μM) of the same compound?
A: 37.85%

Q: What about the “total apoptotic cells including early and late apoptotic cells” value ([12]; A2780, 3 µM) of the same compound?
A: 8.02%

Q: And the “total apoptotic cells including early and late apoptotic cells” value ([12]; A2780, 15 µM)?
A: 28.57%

Q: For `COc1cc2nc(C)cc(Nc3ccc(Oc4ccccc4)cc3)c2c(OC)c1OC` [Compound 7f, 5,6,7-Trimethoxy-2-methyl-N-(4-phenoxyphenyl)quinolin-4-amine], which IC50 [1] is on record?
A: 5.02 ± 1.14 µM

Q: What about the IC50 [2] of the same compound?
A: 8.43 ± 1.85 µM

Q: And the IC50 [3]?
A: 9.04 ± 1.2 µM

Q: What about the IC50 [4] of the same compound?
A: 10.1 ± 1.63 µM

Q: And the IC50 [5]?
A: 8.9 ± 1.26 µM

Q: What about the IC50 [6] of the same compound?
A: 5.02 to 35.8 µM

Q: What about the “tubulin polymerization inhibition” value [7] of the same compound?
A: inhibited tubulin polymerization in a way similar to that of CA-4

Q: What about the G2/M ([8]; A2780, 1 μM) of the same compound?
A: 15.70%

Q: What about the G2/M ([8]; A2780, 10 μM) of the same compound?
A: 17.74%

Q: What about the SubG1 ([8]; A2780, 10 μM) of the same compound?
A: 18.58%

Q: And the G2/M ([9]; 1 μM)?
A: 20.68%

Q: And the G2/M ([9]; 5 μM)?
A: 19.38%

Q: And the G2/M ([10]; MCF-7, 1 μM)?
A: 19.01%

Q: What about the G2/M ([10]; MCF-7, 10 μM) of the same compound?
A: 24.01%

Q: What about the G2/M ([11]; 10 μM) of the same compound?
A: 23.73%

Q: What about the G2/M ([11]; 20 μM) of the same compound?
A: 29.37%

Q: And the melting point?
A: 192 to 195 °C

Q: For `COc1cc2nc(C)cc(Nc3ccccc3Oc3ccccc3)c2c(OC)c1OC` [Compound 7g, 5,6,7-Trimethoxy-2-methyl-N-(2-phenoxyphenyl)quinolin-4-amine], which IC50 [1] is on record?
A: 10.1 ± 2.25 µM

Q: What about the IC50 [2] of the same compound?
A: 12.1 ± 2.17 µM

Q: What about the IC50 [3] of the same compound?
A: 16.3 ± 2.39 µM

Q: And the IC50 [4]?
A: 35.8 ± 3.29 µM

Q: What about the IC50 [5] of the same compound?
A: 27.7 ± 2.63 µM

Q: What about the IC50 [6] of the same compound?
A: 5.02 to 35.8 µM

Q: What about the melting point of the same compound?
A: 150 to 153 °C
